Results taken from patent US9289471B2, “Product and process for liquefaction of mucus or sputum” (National Jewish Health, priority 2002, dated 2016).

Experiment: Compaction assay: percent liquid fraction of CF sputum
Design: species or system human
Conditions: for 3 day range of percent of sputum in the liquid state: donor B; for range of percent liquid values: donor C; for percent liquid fraction: 20 min (FIG. 3A); for liquefying sputum: concentrations below 1 mM
Description: CF sputum stored at −80° C. was thawed at room temperature and aliquoted into 1.5 ml Eppendorf centrifuge tubes at volumes of 275 μl using a positive displacement pipette (Rainin, Emeryville, Calif.). Sputum samples were subjected to either diluent (H2O), Trx+TR+NADPH, GSH+glutathione reductase+NADPH, dithiothreitol (DTT) or N-acetylcysteine treatment by the addition of 25 μl of H2O containing the appropriate molar concentration of each agent. After brief vortexing (˜1 second), sample tubes were loaded onto a microtube rotisserie (Barnstead, Dubuque, Iowa) and incubated at 37° C. for 20 minutes. Samples were then processed for compaction assay according to methodology originated by Daugherty et al. (Daugherty et al., Biomaterials 16:553-558, 1995). To perform the assay, the contents of each sample were loaded into 100 μl glass micro-capillary tubes (Fisher Scientific) that had been previously welded to 200 μl pipette tips in order to achieve a tight fit. Three modified capillary tubes were used to draw up >90% of each sputum sample. Capillary tubes were then removed from their pipette tip, sealed with clay, and centrifuged for 10 minutes in a hematocrit centrifuge (IEC, Needham Heights, Mass.), followed by measurement of the length in millimeters of the gel (solid) and aqueous (liquid) phases in each tube. The percent liquid fraction of each capillary tube was calculated by dividing aqueous phase length by total length (gel+aqueous)×100. The three measurements of the liquid fraction (%) derived from each sample were then averaged to generate a single value for each treatment condition.
Due to abnormal ion transport caused by defects in the CFTR gene, airway secretions in CF patients are often desiccated. As a consequence, purulent CF sputum is comprised largely of a rigid and nonflowing biopolymer matrix, often referred to as gel phase, and lesser amounts of soluble, liquid phase. To assess the effect of Trx on the ratios of these two phases in sputum, compaction assay measurements were performed. […] After 20 minute incubation, the liquid fraction of each sample was determined by compaction assay.
To examine the effect of NADPH, additional samples from different donors were treated with 30 μM Trx, 0.1 μM TR and either 0, 0.2, 0.6, 1.0 or 2 mM NADPH for 20 minutes.
To assess the reproducibility of compaction assay measurements, sputum samples from three different CF donors were separated into aliquots and frozen. Specifically, freshly isolated CF sputum from three different donors (A, B, C) was separated into 275 μl aliquots and frozen. […] Results obtained from three independent experiments performed on each donor sample were used to evaluate assay reproducibility. On three consecutive days, aliquots were thawed, and treated with water, Trx and its reducing system, dithiothreitol (DTT), or no treatment.
The effectiveness of Trx in liquefying sputum was compared with other monothiol and dithiol reducing agents. Sputum samples were aliquoted and treated with Trx or GSH for 20 minutes and percent liquid determined by compaction assay. Initial compaction assay experiments compared the potencies of the Trx and GSH reducing systems in liquefaction of sputum in the presence of equimolar concentrations of NADPH. […] The analysis of Trx and NAC efficacy also was determined after 20 minute incubation, but on a different set of sputum samples.

O[C@H](CS)[C@H](O)CS (racemic) [DTT, dithiothreitol]
3 day range of percent of sputum in the liquid state (1 mM DTT): 24-31%
3 day range of percent of sputum in the liquid state (5 mM DTT): 42-57%
range of percent liquid values (1 mM DTT): 57-61%
range of percent liquid values (5 mM DTT): 77-79%
sputum liquefying effectiveness compared with NAC (equimolar basis (FIGS. 2 and 3; data not shown)): more effective on an equimolar basis than NAC

N[C@@H](CCC(=O)N[C@@H](CS)C(=O)NCC(=O)O)C(=O)O [GSH, glutathione]
percent liquid fraction (30 μM GSH + 0.1 μM Gr + 2 mM NADPH): 7.8±5.7%
percent liquid fraction (100 μM GSH + 0.1 μM Gr + 2 mM NADPH): 15.9±9.3%
percent liquid fraction (1 mM GSH + 0.1 μM Gr + 2 mM NADPH): 27.6±3.9%
significance of increase in liquid fraction versus control (GSH at comparable or higher concentrations up to 1 mM): a significant increase in the liquid fraction of sputum was not observed
liquefying sputum: ineffective

CC(=O)N[C@@H](CS)C(=O)O [N-acetylcysteine]
liquefying sputum: ineffective
effectiveness in causing liquefaction of sputum compared with Trx (range of concentrations, 20 min, 4 experiments (FIG. 3B)): less effective than Trx

NC(=O)C1=CN([C@@H]2O[C@H](COP(=O)(O)OP(=O)(O)OC[C@H]3O[C@@H](n4cnc5c(N)ncnc54)[C@H](OP(=O)(O)O)[C@@H]3O)[C@@H](O)[C@H]2O)C=CC1 [NADPH, β-Nicotinamide adenine dinucleotide phosphate, reduced form]
increase in proportion of sputum present in the liquid fraction (NADPH in the absence of Trx (not shown)): did not cause any increase
